What is called pIC50 is −log10 of the IC50, conventionally taken in molar units. The viability, T/C is the ratio of treated to control.

SMILES strings stand for the structures. pIC50: −log10 of the molar value. Several values for one entry are separate records, joined by “and”; a condition that tells them apart may be missing. Equal entries are not always repeated. Where only a bound is given, the exact number is not on record here.

IC50 and viability, T/C data for six molecules are collected here from PubChem BioAssay AID2060490 (Molecular Pharmacology Branch, DTP, NCI, 2025).

This assay concerns 885512-296-R-J2-PDC complex spheroid viability. The experiment in a line: Anticancer human tumor 885512-296-R-J2-PDC patient-derived breast carcinoma cell line growth inhibition [GQUAD]. To be noted: for viability, T/C: stronger effect = lower value. From the text:
DNA G-quadruplex Stabilizer Agents in Combinations in Complex Spheroids
A high-throughput screen of multi-cell type tumor spheroids was designed to identify active combinations of DNA G-quadruplex stabilizer agents and targeted small molecules. Complex spheroids include a stromal component modeled by human endothelial cells (HUVEC) and fibroblasts modeled by human mesenchymal stem cells (MSCs). The concentration ranges selected for each drug and investigational agent were based upon clinically achievable concentrations if the clinical Cmax of the agent was known.
Compounds. The drugs and investigational agents: pidnarulex (CX-5461; NSC782164), APTO-253 (NSC789042), BRACO-19 (NSC847499), peposertib (NSC802822), ceralasertib (NSC780249), elimusertib (NSC800525), camonsertib (NSC841442), AZD-1390 (NSC803789), olaparib (NSC753686), talazoparib (NSC767125), ART-558 (NSC835418), sotorasib (NSC818433), MRTX-1133 (NSC836407), SN-38 (NSC673596), topotecan (NSC609699), etoposide (NSC141540), doxorubicin (NSC123127), gemcitabine (NSC613327), 5-fluorouracil (NSC19893), paclitaxel (NSC125973), vemurafenib (NSC761431), panobinostat (NSC761190), R-306465 (JNJ-16241199; NSC773264), adavosertib (NSC754352), TP-3654 (NSC805149), carboplatin (NSC241240), KSQ-4279 (NSC840948), and staurosporine (NSC755774) were obtained from the National Cancer Institute (NCI) Developmental Therapeutics Program Chemical Repository (34). The FDA-approved anticancer drug set is available from the NCI Developmental Therapeutics Program. […] The stock solutions were prepared in dimethyl sulfoxide (DMSO, Sigma-Aldrich, St. Louis, MO, cat. D2650) at 800-fold the tested concentration and stored at -70 degrees C prior to their use. All drugs and investigational agents were tested over a range starting from a high concentration at or near the clinical Cmax and decreasing in half-log increments. If the clinical Cmax for an agent had not been determined, the highest concentration tested was 10 microM.
2.3 Cell Culture. All cells were maintained in an incubator at 37 degrees C and 5% CO2 with 95% humidity. The PDC lines were cultured according to standard operating procedures established by the NCI PDMR. All PDCs were thawed and cultured in Matrigel-coated flasks prepared with a working solution of 1X Ham's F-12 nutrient mix, without supplementation (Invitrogen, cat. 11765054), 100 U/mL penicillin-streptomycin (Invitrogen, cat. 15140122), and 2.5% Matrigel (Corning Inc., cat. 354248) for the first three passages. The 857933-349-R-J2-PDC line was cultured in 6C/Colon 1B media, which includes advanced DMEM/F-12 (Thermo Fisher Scientific, cat. 12634028), 10 mM HEPES (Thermo Fisher Scientific, cat. 15630080), 1X GlutaMAX supplement (Thermo Fisher Scientific, cat. 35050061), 0.1 mg/mL primocin (InvivoGen, cat. ant-pm-2), 10% defined fetal bovine serum, heat inactivated (HyClone Laboratories Inc., cat. SH30070.03HI), 50% L-WRN conditioned media (ATCC, cat. CRL-3276), 1.25 mM N-Acetyl-L-cysteine (Sigma-Aldrich, cat. A9165), 10 mM nicotinamide (Sigma-Aldrich, cat. N0636), 1X B-27 supplement (Thermo Fisher Scientific, cat. 17504044), 1X N-2 supplement (Thermo Fisher Scientific, cat. 17502048), 10 microM Y-27632 dihydrochloride (Tocris Bioscience, cat. 1254), and 50 ng/mL human EGF recombinant protein (Thermo Fisher Scientific, cat. PHG0311). The 485176-168-R4-J1-PDC line was cultured in Panc media, which includes all 6C/Colon 1B media components plus 100 ng/mL human FGF-10 (Thermo Fisher Scientific, cat. 100-26), 500 nM SB-431542 (Selleckchem, cat. S1067), and gastrin (Tocris, cat. 3006).
[…]
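Also: spheroids exposed to the compounds for one week.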
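For viability, T/C in this document: percent of tumor spheroid viability relative to DMSO vehicle control wells.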

Consider `O=c1[nH]cc(F)c(=O)[nH]1` + Cc1cnc(CNC(=O)c2c(=O)c3ccc(N4CCCN(C)CC4)nc3n3c2sc2ccccc23)cn1, for which the pIC50 (curve of first compound, second compound 0.0316 µM) was less than 5.00; the negative-log IC50 (pIC50) (curve of first compound, second compound 0.1 µM) is less than 5.00; the pIC50 (curve of first compound, second compound 0.316 µM) was greater than 7.50; the pIC50 (curve of first compound, second compound 1 µM) is greater than 7.50; the negative logarithm of the IC50 (pIC50) (curve of first compound, second compound 3.16 µM) was greater than 7.50; the pIC50 (curve of first compound, second compound 10 µM) is greater than 7.50. The viability, T/C (second compound 0.0316 µM, first compound 0.0316 µM) is 90.9%; the viability, T/C (second compound 0.0316 µM, first compound 0.1 µM) was 75.9%; the viability, T/C (second compound 0.0316 µM, first compound 0.316 µM) was 87.1%; the viability, T/C (second compound 0.0316 µM, first compound 1 µM) is 69.5%; the viability, T/C (second compound 0.0316 µM, first compound 3.16 µM) is 59.4%; the viability, T/C (second compound 0.0316 µM, first compound 10 µM) was 52.1%. Besides, the viability, T/C (second compound 0.1 µM, first compound 0.0316 µM) was 68.3%; the viability, T/C (second compound 0.1 µM, first compound 0.1 µM) was 70.2%; the viability, T/C (second compound 0.1 µM, first compound 0.316 µM) was 54.4%; the viability, T/C (second compound 0.1 µM, first compound 1 µM) was 66.3%; the viability, T/C (second compound 0.1 µM, first compound 3.16 µM) is 51.1%; the viability, T/C (second compound 0.1 µM, first compound 10 µM) was 56.8%. Further, the viability, T/C by setting is: (second compound 0.316 µM, first compound 0.0316 µM) 30%; (second compound 0.316 µM, first compound 0.1 µM) 27.2%; (second compound 0.316 µM, first compound 0.316 µM) 23.6%; (second compound 0.316 µM, first compound 1 µM) 19.8%; (second compound 0.316 µM, first compound 3.16 µM) 38%; (second compound 0.316 µM, first compound 10 µM) 36.1%. Also, the viability, T/C by setting is: (second compound 1 µM, first compound 0.0316 µM) 29.9%; (second compound 1 µM, first compound 0.1 µM) 28.4%; (second compound 1 µM, first compound 0.316 µM) 26.4%; (second compound 1 µM, first compound 1 µM) 28%; (second compound 1 µM, first compound 3.16 µM) 23.1%; (second compound 1 µM, first compound 10 µM) 27.6%. Moreover, the viability, T/C was 23.5% (second compound 3.16 µM, first compound 0.0316 µM); 27.8% (second compound 3.16 µM, first compound 0.1 µM); 22.4% (second compound 3.16 µM, first compound 0.316 µM); 20.4% (second compound 3.16 µM, first compound 1 µM); 29.4% (second compound 3.16 µM, first compound 3.16 µM); 24.1% (second compound 3.16 µM, first compound 10 µM). Also, the viability, T/C by setting is: (second compound 10 µM, first compound 0.0316 µM) 0.1%; (second compound 10 µM, first compound 0.1 µM) 0.16%; (second compound 10 µM, first compound 0.316 µM) 0.21%; (second compound 10 µM, first compound 1 µM) 0.13%; (second compound 10 µM, first compound 3.16 µM) 0.19%; (second compound 10 µM, first compound 10 µM) 0.16%.

Take `O=C(NO)c1cnc(N2CCN(S(=O)(=O)c3ccc4ccccc4c3)CC2)nc1`: the viability, T/C (compound 0.316 µM) was 3.89% and 20.5% and 27.5%; the viability, T/C (compound 1 µM) was 2.64% and 2.67% and 5.87%; the viability, T/C (compound 3.16 µM) is 4.12% and 0.29% and 0.35%; the viability, T/C (compound 10 µM) was 3.42% and 1.01% and 0.1%. Further, the pIC50 (curve of compound) is > 7.50 and 6.92 and 6.73.

For `COc1ncnc(C2CC2)c1-c1ncc2cnn(Cc3ccc(-c4nc(C(F)(F)F)cn4C(C)C)cc3)c2n1`, the viability, T/C is 104% (2×) and 93% (compound 0.0316 µM); 101% and 86% and 90.6% (compound 0.1 µM); 100% and 59.6% and 104% (compound 0.316 µM); 94% and 35.3% and 100% (compound 1 µM); 99.2% and 25.8% and 107% (compound 3.16 µM).

Turning to `CC1COCCN1c1cc(-c2ccnn2C)c2ccnc(-c3ccn[nH]3)c2n1` (configuration not stated), the viability, T/C by setting is: (compound 0.0316 µM) 48% and 48.8% and 42.3%; (compound 0.1 µM) 6.72% and 6.01% and 7.2%; (compound 0.316 µM) 2.82% and 3.14% and 2.97%; (compound 1 µM) 3.36% and 4.09% and 3.06%; (compound 3.16 µM) 4.39% and 4.91% and 5.11%; (compound 10 µM) 7.29% and 7.28% and 8.11%. Besides, for the setting “curve of compound”, the negative logarithm of the IC50 (pIC50) is greater than 7.50.

For the molecule `CC(=O)O[C@H]1C(=O)[C@@]2(C)[C@H]([C@H](OC(=O)c3ccccc3)[C@]3(O)C[C@H](OC(=O)[C@H](O)[C@@H](NC(=O)c4ccccc4)c4ccccc4)C(C)=C1C3(C)C)[C@]1(OC(C)=O)CO[C@@H]1C[C@@H]2O`, the viability, T/C by setting is: (compound 0.0316 µM) 79.3% and 9.94% and 12.2%; (compound 0.316 µM) 21.6% and 4.6% and 3.99%; (compound 1 µM) 2.5% and 3.51% and 4.61%; (compound 3.16 µM) 0.25% and 3.46% and 2.82%; (compound 10 µM) 0.14% and 3.66% and 4.04%. Further, for the setting “curve of compound”, the negative-log IC50 (pIC50) is 6.95 and > 7.50.

For `CC1COCCN1c1cc(C2(O)CC3CCC(C2)O3)c2cnn(-c3ccn[nH]3)c2n1` (configuration not stated), the viability, T/C is 35.6% and 35.7% and 28.2% (compound 0.0316 µM); 5.4% and 6.31% and 4.72% (compound 0.1 µM); 3.47% and 3.66% and 2.97% (compound 0.316 µM); 4.37% and 4.46% and 4.22% (compound 1 µM); 5.77% and 6.96% and 7.53% (compound 3.16 µM); 7.08% and 8.11% and 7.48% (compound 10 µM). Besides, the pIC50 (curve of compound) was greater than 7.50.
